Results published in patent publication US20230143486A1, “METHODS OF GENERATING MIDBRAIN DOPAMINE NEURONS, MIDBRAIN NEURONS AND USES THEREOF” (MEMORIAL SLOAN-KETTERING CANCER CENTER, priority 2020, published 2023).

Key:
rodent GSK3β homologs = conditions: cited from earlier work
hPSC-derived mDA neurons = test: Optimizing WNT inhibition in mDA neuron differentiation (qRT-PCR and ICC); type: cell-based, human
Source text: This example is designed to optimize the temporal window and concentration of the WNT treatment, and to test whether reactivation of non-canonical signaling is required for optimal levels of mDA neuron differentiation or maturation. […] IWP2 inhibits both non-canonical signaling and canonical signaling. The expressions of PITX3, DAT, and VMAT2 are quantified by qRT-PCR and immunocytochemistry (ICC). […] Optimized conditions are validated across hPSC lines (3 hESC and 3 iPSC lines; >3 independent differentiations each) (Zimmer, et al. Proceedings of the National Academy of Sciences of the United States of America 115, […]-[…] (2018)) including male and female lines.

ALK2, ALK3, and ALK6 = conditions: cited from earlier work
[1] = tested on: differentiated mDA cells from hPSC and hiPSC; test: mRNA expression of marker genes in differentiated mDA cells (Wnt-boost protocol with or without FGF18 and/or IWP2); type: cell-based, human
Experimental: hPSC and hiPSC were used for the differentiation methods. First, the effect of Wnt signaling on ALDH1A1 induction in mDA cells differentiated with different protocols was evaluated. The mRNA expression levels of FOXA2, LMX1A, EN1, WNT1, OTX2, ALDH1A1 and PAX6 were evaluated in day 16-differentiated mDA cells produced using Wnt-boost, Wnt-boost+IWP2 (day 10-day 16), and Wnt-boost+IWP2 (day 12-day 16) protocols, with or without FGF18 (day 12-16) (FIG. 1).
SMA mRNA expression level was not detectable. The Wnt-boost protocol in combination with FGF18 and IWP2 generated optimal A/P and DN patterned precursors, where more than 90% cells are FOXA2/EN1 double positive (FIG. 2A). […] Furthermore, The mRNA expression levels of FOXA2, LMX1A, OTX2, EN1, ALDH1A1, BARHL2, BARHL1, PAX6, ALDH2, and WNT1 were evaluated at day 16 in differentiated mDA cells produced using Wnt-boost, Wnt-boost+IWP2 (day 12-day 16) protocols, with or without FGF18 (FIG. 3). The effect of IWP2 on the expression of marker genes in the differentiated cells was determined. […] The present disclosure observed the presence of very high quadrupole positive cells at day 16 (FOXA2/LMX1A, OTX2/EN1). […] Additionally, the expression of ALDH1A1, WNT1, PITX3, DAT, DDC, VMTA2 were increased by the addition of IWP2 and FGF18, whereas IWP2 lowered the expression of Ki67, SMA and SIX1. Immuno-staining images of day 60-differentiated cells were collected showing the expression of FOXA2, TH, and MAP2 (FIG. 14A), and EN1 and TH (FIG. 14B).
The mRNA expression levels of FOXA2, LMX1A, OTX2, EN1, ALDH1A1, WNT1, BARHL1, PAX6, OTX2, and NKX2-2 were evaluated at day 16 in differentiated mDA cells produced using Wnt-boost, Wnt-boost+IWP2 (day 12-day 16) protocols, with or without FGF18. The present disclosure discovered that IWP2 exposure led to increased ALDH1A1 as well as high endogenous WNT1 expression at day 16 both in Wnt Boost and Wnt Boost+FGF18 conditions. Moreover, IWP2 exposure lowered PAX6 and NKX2-2 expression (FIG. 12).
The mRNA expression of marker genes in sorted day 28-differentiated CD49^weak/CD184^weak cells and CD49^weak/CD184^strong cells were measured (FIGS. 21 and 22).

[2] = day 16, both Wnt Boost and Wnt Boost+FGF18 conditions, IWP2 day 12-day 16

Cc1c[nH]c(-c2cnc(NCCNc3ccc(C#N)cn3)nc2-c2ccc(Cl)cc2Cl)n1 [CHIR99021, 6-(2-(4-(2,4-dichlorophenyl)-5-(4-methyl-1H-imidazol-2-yl)pyrimidin-2-ylamino)ethylamino)nicotinonitrile]
IC50 values against rodent GSK3β homologs (rodent GSK3β homologs): nanomolar

Oc1nc(-c2ccc(C(F)(F)F)cc2)nc2c1CSCC2 [XAV939]
inhibition of canonical signaling alone: results comparable to the IWP2 treatment (hPSC-derived mDA neurons; preliminary data (not shown)): might not be sufficient

c1ccc2c(-c3cnn4cc(-c5ccc(N6CCNCC6)cc5)cnc34)ccnc2c1 [LDN193189, 4-(6-(4-(piperazin-1-yl)phenyl)pyrazolo[1,5-a]pyrimidin-3-yl)quinoline]
inhibitor of ALK2, ALK3, and ALK6 (ALK2, ALK3, and ALK6): highly potent

Cc1ccc2nc(NC(=O)CSc3nc4c(c(=O)n3-c3ccccc3)SCC4)sc2c1 [IWP2]
expression of Ki67, SMA and SIX1 ([1]; Wnt-boost protocol, IWP2 day 12 to day 16): lowered
expression of ALDH1A1 ([1]; continued exposure until day 30, day 30-differentiated cells): further induced
PAX6 and NKX2-2 expression ([1]; day 16, IWP2 day 12-day 16): lowered
ALDH1A1 expression [1, 2]: increased
endogenous WNT1 expression [1, 2]: high
expression of ALDH1A1 ([1]; exposure from day 12 to day 25, sorted day 28-differentiated cells, confirmed by immunofluorescent staining): further induced
effect on the expression of EN1 or the emergence of contaminating markers (SIX1 and SMA) (hPSC-derived mDA neurons): does not negatively affect

B1: FGF18: FGF activator, member of the FGF8 subfamily (protein, UniProt O76093 28-207, looked up)
Fibroblast growth factor 18: EENVDFRIHVENQTRARDDVSRKQLRLYQLYSRTSGKHIQVLGRRISARGEDGDKYAQLLVETDTFGSQVRIKGKETEFYLCMNRKGKLVGKPDGTSKECVFIEKVLENNYTALMSAKYSGWYVGFTKKGRPRKGPKTRENQQDVHFMKRYPKGQPELQKPFKYTTVTKRSRRIRPTHPA
expression of EN1 ([1]; Wnt-boost protocol, FGF18 day 12 to day 16): high expression
